This is an account of results in ChEMBL document CHEMBL4350974, “Synthesis and biological evaluation of methylpyrimidine-fused tricyclic diterpene analogs as novel oral anti-late-onset hypogonadism agents” (Eur J Med Chem, 2019).

Data set [1] in a line: Mean residence time in Sprague-Dawley rat at 50 mg/kg, po by LC/MS analysis. Format: ADME, organism-based. The settings on record: in vivo.
The subject of data set [2] is TM3. Nature of the data set: Induction of autophagy in mouse TM3 cells assessed as phosphorylation of AMPK at 10 to 100 uM by Western blot analysis. Format: functional, cell-based.
A short description of data set [3]: Cytotoxicity against human L02 cells assessed as reduction in cell viability measured after 24 hrs by sulforhodamine B assay. Format: cell-based.
Data set [4] can be described thus: AUC (0 to t) in Sprague-Dawley rat plasma at 50 mg/kg, po up to 12 hrs by LC/MS analysis. Format: ADME, organism-based. Further details: dose 50 mg/kg, time < 12 hr, route oral.
The nature of data set [5]: Half-life in Sprague-Dawley rat plasma at 50 mg/kg, po up to 12 hrs by LC/MS analysis. Format: ADME, organism-based.
In data set [6] the test system is Rattus norvegicus. Description: Anti late-onset hypogonadism activity in cyclophosphamide-induced Sprague-Dawley rat model of partial androgen deficiency assessed as weight of testis at 50 mg/kg, po qd administered for 4 weeks (reference value: 1.47 +/- 0.13 g). Format: functional.
Data set [7] relates to Rattus norvegicus. Nature of the data set: Anti late-onset hypogonadism activity in cyclophosphamide-induced Sprague-Dawley rat model of partial androgen deficiency assessed as intratesticular testosterone level at 100 mg/kg, po qd administered for 4 weeks by ELISA (reference value: 137.99 +/- 19.27 nmol/L). Format: functional. On the technique in general: In an ELISA, binding on a coated surface is turned into a signal by an enzyme label.

The test system of data set [8] is TM3. Description: Induction of autophagy in mouse TM3 cells assessed as increase in ATG5 protein level at 10 to 100 uM by Western blot analysis. Format: functional, cell-based. Background: In western blotting, separated proteins are transferred to a membrane and probed.
Data set [9] is described as follows: Mean residence time in Sprague-Dawley rat at 5 mg/kg, iv by LC/MS analysis. Format: ADME, organism-based. To be noted: in vivo.
Data set [10] has as its system TM3. Description: Induction of testosterone production in mouse TM3 cells assessed as increase in testosterone level at 20 uM measured after 24 hrs by ELISA relative to control. Format: functional.
In data set [11] the test system is TM3. Nature of the data set: Induction of testosterone production in mouse TM3 cells assessed as increase in StAR mRNA expression level after 24 hrs by qRT-PCR analysis. Format: functional, cell-based.
Data set [12] in a line: Toxicity in cyclophosphamide - induced Sprague-Dawley rat model of partial androgen deficiency assessed as sperm viability at 50 mg/kg by semen analysis (reference value: 95.1 +/- 3.2 %). To be noted: in vivo. Format: organism-based.
Data set [13] in a line: Toxicity in cyclophosphamide - induced Sprague-Dawley rat model of partial androgen deficiency assessed as effect on kidney at 50 to 100 mg/kg by HE staining based histopathological analysis. Format: organism-based. The settings on record: in vivo.
A short description of data set [14]: Initial plasma concentration in Sprague-Dawley rat plasma at 5 mg/kg, iv by LC/MS analysis. Format: ADME, organism-based.
Data set [15] has as its system TM3. Nature of the data set: Induction of autophagy in mouse TM3 cells assessed as increase in LC3-II/LC3-I ratio at 10 to 100 uM after 24 hrs by Western blot analysis. Format: functional, cell-based.
Data set [16] relates to Rattus norvegicus. Nature of the data set: Anti late-onset hypogonadism activity in cyclophosphamide-induced Sprague-Dawley rat model of partial androgen deficiency assessed as weight of seminal vesicles at 50 mg/kg, po qd administered for 4 weeks (reference value: 1.33 +/- 0.26 g). Format: functional.
The test system of data set [17] is Rattus norvegicus. Nature of the data set: Anti late-onset hypogonadism activity in cyclophosphamide-induced Sprague-Dawley rat model of partial androgen deficiency assessed as increase in free testosterone level at 50 to 100 mg/kg, po qd administered for 4 weeks and measured every 2 weeks by ELISA. Format: functional, organism-based.
The species named for data set [18] is Rattus norvegicus. Nature of the data set: Anti late-onset hypogonadism activity in cyclophosphamide-induced Sprague-Dawley rat model of partial androgen deficiency assessed as induction of autophagy in Leydig cells immunohistochemical analysis. Format: functional, organism-based.
Data set [19] in a line: AUC (0 to t) in Sprague-Dawley rat plasma at 5 mg/kg, iv up to 5 hrs by LC/MS analysis. Format: ADME, organism-based. Further details: time < 5 hr, dose 5 mg/kg, route intravenous.
Data set [20] has as its system Rattus norvegicus. Description: Anti late-onset hypogonadism activity in cyclophosphamide-induced Sprague-Dawley rat model of partial androgen deficiency assessed as intratesticular testosterone level at 50 mg/kg, po qd administered for 4 weeks by ELISA (reference value: 137.99 +/- 19.27 nmol/L). Format: functional.

As a reminder, the MRT is a mean duration of stay, worked out from the concentration-time curve. As a reminder, the CC50 is the concentration giving 50% cytotoxicity. By AUC(0-t) is commonly meant exposure summed from dosing to a finite time, without extrapolation to infinity. The half-life is the time needed for the level to fall by half in the phase considered. Read a high half-life as slow decline.

The source made the active and inactive calls.

Take `CNC(=O)c1cc2c(cc1OC)[C@@]1(C)Cc3cnc(C)nc3C(C)(C)C1CC2` (mixture of isomers): the figures for the MRT in data set [1] and in data set [9] were 7.76 h and 9.92 h, respectively. Also, the result in data set [2], in data set [8], in [15], in [17] and in [18] was Active. Besides, the CC50 at 24 h in data set [3] was over 200 µM. Moreover, the area under the curve AUC(0-t) at 12 h in data set [4] was 3050 ng·h/mL. The same molecule had a half-life in [5] of 4.44 h. For the same molecule, the Activity in data set [6] was 1.54 g; in [7], 185.58 nmol/L; in data set [10], 174.6%; in data set [11], “Dose-dependent effect”; in data set [12] it was 96.5%; in data set [13], “Non-Toxic”. Besides, the Activity in [16] is listed as 1.53 g; in [20], 180.24 nmol/L. The C0 in data set [14] came to 279 ng/mL. Moreover, the AUC(0-t) at 5 h in data set [19] turned out to be 453 ng·h/mL.
